The text below walks through data of patent US20170143608A1, “SKIN COLOR-IMPROVING AGENT AND COMPOSITION FOR IMPROVING SKIN COLOR” (priority 2014, published 2017).

Test [1] relates to heme oxygenase gene (HO-1 gene). Kind of test: Expression promoting effect on heme oxygenase gene in NB1-RGB cells (quantitative real-time PCR). The settings on record: for Relative gene expression level HO-1: final concentration 0.2 μm, 72 hours, standardized to GAPDH, 50% ethanol control = 1.00; for expression promoting effect on HO-1 gene compared to dl-α-tocopherol acetate group (in words): compared to the group in which dl-α-tocopherol acetate was added. On the technique in general: Quantitative PCR measures a nucleic acid by following its amplification.
Protocol: (§1) Specifically, the NB1-RGB cells were prepared at a seeding density of 10,000 cells/cm^2, and were cultured for 24 hours in a DMEM medium containing 10% fetal bovine serum. […] In addition, one obtained by adding only 50% ethanol to the medium of cells was used as the control.
(§2) Next, all RNA was extracted from each cell, cDNA was synthesized, quantitative real-time PCR was performed using this cDNA as a template, and the expression levels of the HO-1 gene and UGT1A1 gene were quantified.

The subject of test [2] is UDP-glucuronosyltransferase gene (UGT1A1 gene). The experiment in a line: Expression promoting effect on UDP-glucuronosyltransferase gene in NB1-RGB cells (quantitative real-time PCR). The test is classed as cell-based, human. The settings on record: for Relative gene expression level UGT1A1: final concentration 0.2 μm, 72 hours, standardized to GAPDH, 50% ethanol control = 1.00; for expression promoting effect on UGT1A1 gene compared to dl-α-tocopherol acetate group (in words): compared to the group in which dl-α-tocopherol acetate was added.
Protocol: as §1, §2

Regarding `CC(=O)Oc1c(C)c(C)c2c(c1C)CCC(C)(CCCC(C)CCCC(C)CCCC(C)C)O2` (racemic) [dl-α-tocopherol acetate, reference compound], in test [1], the “Relative gene expression level HO-1” value is 0.97. The “Relative gene expression level UGT1A1” value in test [2] was 34.84.
As to `Cc1c(C)c2c(c(C)c1OP(=O)([O-])[O-])CCC(C)(CCCC(C)CCCC(C)CCCC(C)C)O2.[Na+].[Na+]` (stereo not drawn) [sodium α-tocopheryl phosphate], in test [1], the “expression promoting effect on HO-1 gene compared to the control (in words)” value is listed as “expression promoting effect”, the “expression promoting effect on HO-1 gene compared to dl-α-tocopherol acetate group (in words)” value is recorded as “higher expression promoting effect” and the “Relative gene expression level HO-1” value was 1.40. Moreover, in test [2], the “expression promoting effect on UGT1A1 gene compared to the control (in words)” value was “expression promoting effect”, the “expression promoting effect on UGT1A1 gene compared to dl-α-tocopherol acetate group (in words)” value was “higher expression promoting effect” and the “Relative gene expression level UGT1A1” value is on record as 59.11.
On to `Cc1c(OP(=O)([O-])[O-])cc2c(c1C)O[C@](C)(CCC[C@H](C)CCC[C@H](C)CCCC(C)C)CC2.[Na+].[Na+]` [sodium γ-tocopheryl phosphate], for which, in test [1], the “expression promoting effect on HO-1 gene compared to the control (in words)” value was “expression promoting effect”, the “expression promoting effect on HO-1 gene compared to dl-α-tocopherol acetate group (in words)” value is recorded as “higher expression promoting effect” and the “Relative gene expression level HO-1” value is recorded as 1.21. For the same compound, in test [2], the “expression promoting effect on UGT1A1 gene compared to the control (in words)” value is “expression promoting effect”, the “expression promoting effect on UGT1A1 gene compared to dl-α-tocopherol acetate group (in words)” value is on record as “higher expression promoting effect” and the “Relative gene expression level UGT1A1” value is reported as 42.98.
